Results taken from ChEMBL document CHEMBL1201862, “PubChem BioAssay data set” (2004).
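Tested at 5 concentrations; 48 h exposure; 96-well plates; endpoints linearly interpolated, else capped at highest concentration. Abbreviation: GI50, concentration required for 50% inhibition of growth.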 Activity calls are given as the source filed them. Rule as the data show it: active = GI50 up to about 1.1 µM and inactive = higher.

Experiments:
Assay in all cases: growth of human tumour cells (NCI), 48 h
M14 = system: M14
786-0 = system: 786-0
UO-31 = system: UO-31
CCRF-CEM = system: CCRF-CEM
DMS-114 = system: DMS-114
RPMI-8226 = system: RPMI-8226
A498 = system: A498
OVCAR-3 = system: OVCAR-3
OVCAR-8 = system: OVCAR-8
SK-OV-3 = system: SK-OV-3
HT-29 = system: HT-29
HCT-15 = system: HCT-15
NCI-H522 = system: NCI-H522
EKVX = system: EKVX
SNB-78 = system: SNB-78
SK-MEL-28 = system: SK-MEL-28
LXFL 529 = system: LXFL 529
HOP-92 = system: HOP-92
OVCAR-5 = system: OVCAR-5
HL-60 = system: HL-60
KM12 = system: KM12
SNB-19 = system: SNB-19
SNB-75 = system: SNB-75
MOLT-4 = system: MOLT-4
UACC-62 = system: UACC-62
NCI-H460 = system: NCI-H460
OVCAR-4 = system: OVCAR-4
DLD-1 = system: DLD-1
Malme-3M = system: Malme-3M
U-251 = system: U-251
NCI-H23 = system: NCI-H23
TK-10 = system: TK-10
SN12C = system: SN12C
SK-MEL-5 = system: SK-MEL-5
HOP-18 = system: HOP-18
HCC 2998 = system: HCC 2998
ACHN = system: ACHN
LOX IMVI = system: LOX IMVI
RXF 393 = system: RXF 393
COLO 205 = system: COLO 205
K562 = system: K562
UACC-257 = system: UACC-257
HCT-116 = system: HCT-116
RXF 631 = system: RXF 631
M19-MEL = system: M19-MEL
SF-268 = system: SF-268
SF-539 = system: SF-539
SK-MEL-2 = system: SK-MEL-2
SF-295 = system: SF-295
IGROV-1 = system: IGROV-1
DMS-273 = system: DMS-273
SR = system: SR
CAKI-1 = system: CAKI-1
A549 = system: A549
SW-620 = system: SW-620
HOP-62 = system: HOP-62
KM-20L2 = system: KM-20L2
NCI-H226 = system: NCI-H226
XF498 = system: XF498

## C1CSC(=[N+]2CC[N+](=C3SCCS3)CC2)S1
M14
  GI50: > 100 µM (inactive)
786-0
  GI50: > 100 µM (inactive)
UO-31
  GI50: > 100 µM (inactive)
CCRF-CEM
  GI50: 36.6 µM (inactive)
DMS-114
  GI50: > 100 µM (inactive)
RPMI-8226
  GI50: > 100 µM (inactive)
A498
  GI50: > 100 µM (inactive)
OVCAR-3
  GI50: > 100 µM (inactive)
OVCAR-8
  GI50: > 100 µM (inactive)
SK-OV-3
  GI50: > 100 µM (inactive)
HT-29
  GI50: > 100 µM (inactive)
HCT-15
  GI50: > 100 µM
NCI-H522
  GI50: > 100 µM (inactive)
EKVX
  GI50: > 100 µM (inactive)
SNB-78
  GI50: > 100 µM (inactive)
SK-MEL-28
  GI50: > 100 µM (inactive)
LXFL 529
  GI50: > 100 µM (inactive)
HOP-92
  GI50: 45.4 µM (inactive)
OVCAR-5
  GI50: > 100 µM (inactive)
HL-60
  GI50: > 100 µM (inactive)
KM12
  GI50: > 100 µM (inactive)
SNB-19
  GI50: > 100 µM (inactive)
SNB-75
  GI50: > 100 µM (inactive)
MOLT-4
  GI50: 44.9 µM (inactive)
UACC-62
  GI50: > 100 µM (inactive)
NCI-H460
  GI50: > 100 µM (inactive)
OVCAR-4
  GI50: > 100 µM (inactive)
DLD-1
  GI50: > 100 µM (inactive)
Malme-3M
  GI50: > 100 µM (inactive)
U-251
  GI50: > 100 µM (inactive)
NCI-H23
  GI50: > 100 µM (inactive)
TK-10
  GI50: > 100 µM (inactive)
SN12C
  GI50: > 100 µM (inactive)
SK-MEL-5
  GI50: > 100 µM (inactive)
HOP-18
  GI50: > 100 µM (inactive)
HCC 2998
  GI50: > 100 µM (inactive)
ACHN
  GI50: > 100 µM (inactive)
LOX IMVI
  GI50: 39.2 µM (inactive)
RXF 393
  GI50: > 100 µM (inactive)
COLO 205
  GI50: > 100 µM (inactive)
K562
  GI50: > 100 µM (inactive)
UACC-257
  GI50: > 100 µM (inactive)
HCT-116
  GI50: > 100 µM (inactive)
RXF 631
  GI50: > 100 µM (inactive)
M19-MEL
  GI50: > 100 µM (inactive)
SF-268
  GI50: > 100 µM (inactive)
SF-539
  GI50: > 100 µM (inactive)
SK-MEL-2
  GI50: > 100 µM (inactive)
SF-295
  GI50: > 100 µM (inactive)
IGROV-1
  GI50: > 100 µM (inactive)
DMS-273
  GI50: > 100 µM (inactive)
SR
  GI50: 83.8 µM (inactive)
CAKI-1
  GI50: > 100 µM (inactive)
A549
  GI50: > 100 µM (inactive)
SW-620
  GI50: > 100 µM (inactive)
HOP-62
  GI50: > 100 µM (inactive)
KM-20L2
  GI50: > 100 µM (inactive)

## COc1ccc(/N=N/C(C(=O)c2ccccc2)C(=O)c2ccccc2)cc1
M14
  GI50: 15.3 µM (inactive)
786-0
  GI50: 19.9 µM (inactive)
UO-31
  GI50: 16.9 µM (inactive)
NCI-H226
  GI50: 8.67 µM (inactive)
CCRF-CEM
  GI50: 8 µM (inactive)
DMS-114
  GI50: 19.4 µM (inactive)
RPMI-8226
  GI50: 13.4 µM (inactive)
A498
  GI50: 35.7 µM (inactive)
OVCAR-3
  GI50: 17.2 µM (inactive)
OVCAR-8
  GI50: 22.4 µM (inactive)
SK-OV-3
  GI50: 45.9 µM (inactive)
HT-29
  GI50: 23 µM (inactive)
HCT-15
  GI50: 15.1 µM
NCI-H522
  GI50: 16.2 µM (inactive)
EKVX
  GI50: 21.3 µM (inactive)
SK-MEL-28
  GI50: 26.4 µM (inactive)
LXFL 529
  GI50: 24.8 µM (inactive)
OVCAR-5
  GI50: 33.8 µM (inactive)
HL-60
  GI50: 10.4 µM (inactive)
KM12
  GI50: 27 µM (inactive)
SNB-19
  GI50: 17.7 µM (inactive)
SNB-75
  GI50: 20.6 µM (inactive)
MOLT-4
  GI50: 14.7 µM (inactive)
XF498
  GI50: 18.2 µM (inactive)
UACC-62
  GI50: 16 µM (inactive)
NCI-H460
  GI50: 18.6 µM (inactive)
OVCAR-4
  GI50: 30.8 µM (inactive)
DLD-1
  GI50: 23.9 µM (inactive)
Malme-3M
  GI50: 24.9 µM (inactive)
U-251
  GI50: 15.7 µM (inactive)
NCI-H23
  GI50: 18.3 µM (inactive)
TK-10
  GI50: 52 µM (inactive)
SN12C
  GI50: 21 µM (inactive)
SK-MEL-5
  GI50: 14.1 µM (inactive)
HCC 2998
  GI50: 44.7 µM (inactive)
ACHN
  GI50: 24.7 µM (inactive)
LOX IMVI
  GI50: 17.8 µM (inactive)
COLO 205
  GI50: 42.1 µM (inactive)
K562
  GI50: 19.1 µM (inactive)
UACC-257
  GI50: 24.5 µM (inactive)
HCT-116
  GI50: 13.6 µM (inactive)
RXF 631
  GI50: 31.4 µM (inactive)
SF-268
  GI50: 23.8 µM (inactive)
SF-539
  GI50: 25.4 µM (inactive)
SK-MEL-2
  GI50: 21.9 µM (inactive)
SF-295
  GI50: 21.3 µM (inactive)
IGROV-1
  GI50: 34.7 µM (inactive)
DMS-273
  GI50: 16.1 µM (inactive)
CAKI-1
  GI50: 32.5 µM (inactive)
A549
  GI50: 21.3 µM (inactive)
SW-620
  GI50: 19.3 µM (inactive)
HOP-62
  GI50: 23.3 µM (inactive)
KM-20L2
  GI50: 27.2 µM (inactive)
